Results on 2 compounds are retold here after BindingDB's records for patent US11161844 (PFIZER INC., 2021).

Structures are written as SMILES.

The target in assay [1] is Leucine-rich repeat serine/threonine-protein kinase 2 (Homo sapiens, UniProt Q5S007). Kind of assay: LRRK2 Assay. The procedure:
(§1) LRRK2 kinase activity was measured using Lantha Screen technology from Invitrogen. GST-tagged truncated LRRK2 from Invitrogen (Cat #PV4874) was incubated with a fluorescein-labeled peptide substrate based upon ezrin/radixin/moesin (ERM), also known as LRRKtide (Invitrogen cat #PR8976A), in the presence of a dose response of compound. Upon completion, the assay was stopped and detected with a terbium labeled anti-phospho-ERM antibody (Invitrogen, cat #PR8975A). The assay was carried out under the following protocol: The compound dose response was prepared by diluting compound to a top concentration of 0.3 mM in 100% DMSO and serial diluted by half-log in DMSO to give an 11 point curve, 100× final assay concentration. Using Echo acoustic dispensing, 60 nL of compound was transferred to a low volume Corning 384-well assay plate. 3 μL of a working solution of substrate (200 nM LRRKtide, 2 mM ATP) prepared in assay buffer (50 mM HEPES, pH 7.5, 3 mM MgCl2, with 2 mM DTT and 0.01% Brij35 added fresh) was added to the 60 nL compound assay plate. The kinase reaction was started with 3 μL of a working solution of LRRK2 enzyme at a concentration of 4 μg/mL. The final reaction concentrations were 100 nM LRRKtide, 1 mM ATP, 2 μg/mL LRRK2 enzyme and a compound dose response with a top dose of 3 μM. The reaction was allowed to progress at room temperature for 30 minutes and then stopped with the addition of 6 μL of detection buffer (20 mM Tris pH 7.6, 0.01% NP-40, 6 mM EDTA with 2 nM terbium labeled anti-phospho-ERM). After an incubation of 1 hour at room temperature, the plate was read on an Envision with an excitation wavelength of 340 nm and a reading emission at both 520 nm and 495 nm. The ratio of the 520 nm and 495 nm emission was used to analyze the data. Inhibition of mutant G2019S LRRK2 (Invitrogen cat #PV4881) was measured in the exact same method. All final concentrations of substrate ATP and enzyme were the same.

Assay [2] deals with Leucine-rich repeat serine/threonine-protein kinase 2 [G2019S] (Homo sapiens, UniProt Q5S007, G2019S). Kind of assay: LRRK2 Assay. Here is the method:
as §1

Leucine-rich repeat serine/threonine-protein kinase 2, sequence (Q5S007 whole entry, the tested form may be a part): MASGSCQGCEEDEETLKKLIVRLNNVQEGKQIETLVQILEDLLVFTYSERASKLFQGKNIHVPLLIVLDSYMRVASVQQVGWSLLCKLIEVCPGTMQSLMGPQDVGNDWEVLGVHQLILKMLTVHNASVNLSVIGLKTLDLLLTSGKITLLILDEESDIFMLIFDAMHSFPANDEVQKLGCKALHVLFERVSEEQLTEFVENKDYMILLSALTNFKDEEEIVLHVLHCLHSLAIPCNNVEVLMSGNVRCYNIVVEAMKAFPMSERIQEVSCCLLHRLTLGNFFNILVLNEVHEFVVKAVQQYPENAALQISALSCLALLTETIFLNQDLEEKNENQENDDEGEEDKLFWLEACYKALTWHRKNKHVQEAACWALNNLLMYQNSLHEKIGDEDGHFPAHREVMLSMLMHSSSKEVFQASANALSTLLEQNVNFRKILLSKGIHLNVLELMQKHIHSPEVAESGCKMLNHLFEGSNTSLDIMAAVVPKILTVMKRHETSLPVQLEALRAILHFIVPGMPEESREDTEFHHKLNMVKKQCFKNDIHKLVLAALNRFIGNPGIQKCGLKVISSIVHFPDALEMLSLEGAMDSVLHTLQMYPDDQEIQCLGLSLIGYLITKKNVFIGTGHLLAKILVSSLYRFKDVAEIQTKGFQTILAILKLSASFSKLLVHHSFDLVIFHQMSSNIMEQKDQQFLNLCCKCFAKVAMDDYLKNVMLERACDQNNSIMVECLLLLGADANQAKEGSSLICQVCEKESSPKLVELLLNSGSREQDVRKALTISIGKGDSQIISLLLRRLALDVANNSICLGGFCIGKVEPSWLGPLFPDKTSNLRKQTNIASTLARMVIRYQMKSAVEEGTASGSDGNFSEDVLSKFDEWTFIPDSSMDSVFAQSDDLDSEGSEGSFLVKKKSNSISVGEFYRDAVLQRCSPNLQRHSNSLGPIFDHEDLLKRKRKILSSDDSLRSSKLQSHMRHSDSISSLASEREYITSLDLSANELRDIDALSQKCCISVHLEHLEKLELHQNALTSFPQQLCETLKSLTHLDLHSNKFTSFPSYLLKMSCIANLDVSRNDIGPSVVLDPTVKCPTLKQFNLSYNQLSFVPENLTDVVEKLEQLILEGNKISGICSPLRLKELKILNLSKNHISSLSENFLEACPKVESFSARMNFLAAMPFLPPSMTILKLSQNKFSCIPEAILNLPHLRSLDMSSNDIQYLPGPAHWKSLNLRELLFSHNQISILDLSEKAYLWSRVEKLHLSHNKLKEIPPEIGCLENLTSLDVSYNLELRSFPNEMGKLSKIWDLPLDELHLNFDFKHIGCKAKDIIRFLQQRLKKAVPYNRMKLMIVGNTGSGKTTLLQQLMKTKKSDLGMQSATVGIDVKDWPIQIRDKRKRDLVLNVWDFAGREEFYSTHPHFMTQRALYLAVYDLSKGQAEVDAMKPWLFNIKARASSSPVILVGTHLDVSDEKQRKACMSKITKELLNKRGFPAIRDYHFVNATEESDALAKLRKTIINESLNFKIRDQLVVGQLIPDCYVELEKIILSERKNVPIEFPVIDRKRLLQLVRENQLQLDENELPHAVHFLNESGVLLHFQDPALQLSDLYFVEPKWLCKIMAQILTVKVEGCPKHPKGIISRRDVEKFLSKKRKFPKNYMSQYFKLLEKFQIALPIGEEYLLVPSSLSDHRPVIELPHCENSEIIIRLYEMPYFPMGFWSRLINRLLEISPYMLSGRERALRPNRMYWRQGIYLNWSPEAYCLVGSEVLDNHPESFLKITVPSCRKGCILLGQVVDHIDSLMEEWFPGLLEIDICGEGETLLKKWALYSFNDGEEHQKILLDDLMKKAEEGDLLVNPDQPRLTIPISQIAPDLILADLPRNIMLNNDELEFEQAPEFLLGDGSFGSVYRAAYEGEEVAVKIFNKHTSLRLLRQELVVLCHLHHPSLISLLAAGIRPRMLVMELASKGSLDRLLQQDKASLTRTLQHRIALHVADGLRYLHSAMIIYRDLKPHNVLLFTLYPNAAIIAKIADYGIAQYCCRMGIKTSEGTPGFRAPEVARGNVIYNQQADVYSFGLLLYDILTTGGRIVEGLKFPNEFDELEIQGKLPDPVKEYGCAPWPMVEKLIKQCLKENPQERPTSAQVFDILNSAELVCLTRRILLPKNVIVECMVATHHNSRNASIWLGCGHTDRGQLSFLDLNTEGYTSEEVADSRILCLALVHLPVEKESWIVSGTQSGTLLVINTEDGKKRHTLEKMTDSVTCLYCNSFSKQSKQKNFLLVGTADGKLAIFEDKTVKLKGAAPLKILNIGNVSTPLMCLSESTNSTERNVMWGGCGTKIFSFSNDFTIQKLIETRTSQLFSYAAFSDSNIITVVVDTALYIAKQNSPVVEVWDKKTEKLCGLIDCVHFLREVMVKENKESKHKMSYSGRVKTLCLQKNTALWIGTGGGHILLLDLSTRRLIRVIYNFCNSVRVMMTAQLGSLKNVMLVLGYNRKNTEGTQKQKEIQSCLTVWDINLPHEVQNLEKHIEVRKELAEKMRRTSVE
Leucine-rich repeat serine/threonine-protein kinase 2 [G2019S], sequence (Q5S007 whole entry G2019S): as the sequence (Q5S007 whole entry, the tested form may be a part) above, with G2019S counted along it

As for `C[C@@H]1CC(n2c(C3CC(C)(F)C3)nc3cnc4ccc(F)cc4c32)CCO1` (stereo partly drawn) [US11161844, Example 31], the IC50 (commonly the concentration that inhibits the measured activity by half) in assay [1] came to 22 nM; in assay [2], 15.8 nM.

For `C[C@@H]1C[C@H](n2c(C3CCC(F)C3)nc3cnc4ccc(F)cc4c32)CCO1` (single isomer, unassigned) [US11161844, Example 37], in assay [1], the IC50 came to 5.68 nM.
